# Assay results taken from PMC4209961 (Journal of nuclear medicine : official publication, Society …, 2013).
# Test system: U87MG tumors
# Assay: Tumor growth
# Format: in vivo, athymic nude mice
# Details: two doses of doxorubicin 5 mg/kg/dose two days apart, tail vein; at day 5 after the treatment started, P < 0.05
compound,measurement,value
COc1cccc2c1C(=O)c1c(O)c3c(c(O)c1C2=O)C[C@@](O)(C(=O)CO)C[C@@H]3O[C@H]1C[C@H](N)[C@H](O)[C@H](C)O1 [doxorubicin],tumor growth response,significant growth inhibition
